Experiment: Henry solubility constant Hcp at 298.15 K (mol/(m3 Pa))
Settings: reference: Helburn et al. (2008)

Row | SMILES | Henry solubility constant Hcp
1 | C=C(C)[C@H]1CC=C(C)CC1 [(R)-1-methyl-4-(1-methylethenyl)-cyclohexene] | 0.00026
2 | CCCCOC(C)=O [butyl ethanoate] | 0.021
3 | Cc1ccccc1 [methylbenzene] | 0.0014
4 | CCCCCCCCCC=O [decanal] | 0.0043
5 | ClCCl [dichloromethane] | 0.0032
6 | ClC=C(Cl)Cl [trichloroethene] | 0.00094
7 | C1CCCCC1 [cyclohexane] | 8e-05
8 | CCOCC [diethyl ether] | 0.095
9 | CC(C)=CCCC(C)=CC#N [3,7-dimethyl-2,6-octadienenitrile] | 0.029
10 | CC(C)C12CCC(C)(CC1)O2 [1-methyl-4-(1-methylethyl)-7-oxabicyclo[2.2.1]heptane] | 0.039
11 | CC(C)O [2-propanol] | 0.68
